Source: patent US10017481B2, “Conformationally constrained, fully synthetic macrocyclic compounds” (POLYPHOR AG, priority 2012, dated 2018)

What was measured:
Assay type in all cases: in vitro ADME
[1] = Metabolic stability assay, human liver microsomes; conditions: human microsomes, 10 μM, 37° C.; for half-life at 10 μM: both sexes, liver microsomes, 1 mg/ml protein, read-out: Metabolic Stability T ½ [min] hum
Description: (§1) 5. Plasma and Metabolic Stability Assays
(§2) Example compounds were dissolved in DMSO/H2O 90:10 to a final concentration of 10 mM for plasma stability determination and metabolic stability determination.
(§3) The assays were conducted according to literature precedents (F. P. Guengerich, Analysis and Characterization of Enzymes; in: Principles and Methods of Toxicology, A. W. Hayes (Ed.) Raven Press: New York, 1989, 777-813; R. Singh et al., In vitro metabolism of a potent HIV-protease inhibitor (141W94) using rat, monkey and human liver S9, Rapid Commun. Mass Spectrom. 1996, 10, 1019-1026).
(§4) Metabolic Stability Assay
(§5) Microsomes from a human 50 donor mixed gender pool and 1:1 mixtures of microsomes from CD-1 mouse single-gender pools are purchased from Celsis (Belgium). The enzymatic reaction is performed in a buffer containing an NADPH regeneration system and microsomes with the following end concentrations: 100 mM potassium phosphate buffer (all from Sigma), 1 mg/mL glucose-6-phosphate, 1 mg/mL β-nicotinamide adenine dinucleotide phosphate (NADP), 0.65 mg/mL magnesium chloride, 0.8 units/mL of glucose-6-phosphate dehydrogenase (prediluted with 5 mM citrate buffer), 10 μM compound and 1 mg/ml microsomal protein. Compounds are incubated at 37° C. in duplicates and samples are taken after 0, 5, 10, 20 and 60 minutes. After acetonitrile precipitation (3 volumes), shaking (2 minutes, 600 rpm) followed by centrifugation (10 minutes, 3200 g), the supernatant is dried reconstituted in the suitable solvent (cf. Table 33) and analyzed by HPLC/MS/MS. Metabolic turnover is expressed in % of the initial 0 minutes value and half life T½ (min) is calculated. Verapamil for human and propranolol for mouse are used as reference and are assayed with every experimental set.

[2] = Plasma stability assay, CD-1 mouse plasma; conditions: for Plasma Stability 240 min mouse/(rat) [% remain.]: CD-1 mouse plasma, 10 μM, 37° C.; for half-life at 10 μM: both sexes, CD-1, mouse, plasma
Description: (§6) 5. Plasma and Metabolic Stability Assays Example compounds were dissolved in DMSO/H2O 90:10 to a final concentration of 10 mM for plasma stability determination and metabolic stability determination. The assays were conducted according to literature precedents (F. P. Guengerich, Analysis and Characterization of Enzymes; in: Principles and Methods of Toxicology, A. W. Hayes (Ed.) Raven Press: New York, 1989, 777-813; R. Singh et al., In vitro metabolism of a potent HIV-protease inhibitor (141W94) using rat, monkey and human liver S9, Rapid Commun. Mass Spectrom. 1996, 10, 1019-1026). Plasma Stability Assay Human plasma (Blutspendedienst SRK, Basel) and CD-1 mouse plasma (mixed gender pool >50 animals, Innovative Research, Calif., USA) are both sodium citrate stabilized. The assay is performed in triplicates at 10 μM compound concentration and 37° C. Samples are taken at 0, 15, 30, 60, 120 and 240 minutes and stopped by precipitation with 3 volumes of acetonitrile/formic acid 98:2 and shaking (2 minutes, 600 rpm) followed by filtration (−20 mm Hg). The filtrate is collected. The filtrate (100 μL) is evaporated and reconstituted in the suitable solvent (cf. Table 33) to be analyzed by HPLC/MS/MS. The resulting peak area counts are expressed in percent of the 0 value and used to determine the endpoint stability in % and the half life T in minutes. In order to monitor assay integrity the degradation of propantheline is assayed with every experimental set.

[3] = Metabolic stability assay, CD-1 mouse microsomes; conditions: CD-1 mouse microsomes, 10 μM, 37° C.; for half-life at 10 μM: both sexes, 1 mg/ml protein, read-out: Metabolic Stability T ½ [min] mouse/(rat)
Description: as §1, §2, §3, §4, §5

[4] = Plasma stability assay, human plasma; conditions: for Plasma Stability 240 min hum [% remain.]: human plasma, 10 μM, 37° C.; for half-life at 10 μM: human, plasma
Description: as §6

| SMILES | half-life at 10 μM [1] [min] | Metabolic Stability 60 min hum [% remain.] [1] [% remain.] | Plasma Stability 240 min mouse/(rat) [% remain.] [2] [% remain.] | half-life at 10 μM [2] [h] | Metabolic Stability 60 min mouse/(rat) [% remain.] [3] [% remain.] | half-life at 10 μM [3] [min] | Plasma Stability 240 min hum [% remain.] [4] [% remain.] | half-life at 10 μM [4] [h] |
| --- | --- | --- | --- | --- | --- | --- | --- | --- |
| COc1ccc2c(c1)-c1cccc(c1)C(=O)N(C)[C@H](C(N)=O)CCC(=O)N[C@H](C)CO2 [Ex. 43, (10R,15S)-4-methoxy-10,16-dimethyl-12,17-dioxo-8-oxa-11,16-diazatricyclo[16.3.1.0^2,7]docosa-1(22),2,4,6,18,20-hexaene-15-carboxamide] | > 60 | 100 | 63 | > 4 | 83 | > 60 | 97 | > 4 |
| COc1ccc2c(c1)-c1cccc(c1)C(=O)N(C)[C@H](C(=O)NCC(=O)O)CCC(=O)N[C@H](C)CO2 [Ex. 57, 2-({[(10R,15S)-4-methoxy-10,16-dimethyl-12,17-dioxo-8-oxa-11,16-diazatricyclo[16.3.1.0^2,7]docosa-1(22),2,4,6,18,20-hexaen-15-yl]carbonyl}amino)acetic acid] | > 60 | 100 | 74 | > 4 | 100 | > 60 | 100 | > 4 |
| COc1ccc2c(c1)-c1cccc(c1)C(=O)N(C)[C@H](C(=O)NC1CC1)CCC(=O)N[C@H](C)CO2 [Ex. 52, (10R,15S)-N-cyclopropyl-4-methoxy-10,16-dimethyl-12,17-dioxo-8-oxa-11,16-diazatricyclo[16.3.1.0^2,7]docosa-1(22),2,4,6,18,20-hexaene-15-carboxamide] | > 60 | 100 | 95 | > 4 | 78 | > 60 | 99 | > 4 |
| COc1ccc2c(c1)-c1cccc(c1)C(=O)N(C)[C@H](C(=O)NCCCN)CCC(=O)N[C@H](C)CO2 [Ex. 49, (10R,15S)-N-(3-aminopropyl)-4-methoxy-10,16-dimethyl-12,17-dioxo-8-oxa-11,16-diazatricyclo[16.3.1.0^2,7]docosa-1(22),2,4,6,18,20-hexaene-15-carboxamide] | > 60 | 100 | 76 | > 4 | 92 | > 60 | 95 | > 4 |
| COCCNC(=O)[C@@H]1CCC(=O)N[C@H](C)COc2ccc(OC)cc2-c2cccc(c2)C(=O)N1C [Ex. 51, (10R,15S)-4-methoxy-N-(2-methoxyethyl)-10,16-dimethyl-12,17-dioxo-8-oxa-11,16-diazatricyclo[16.3.1.0^2,7]docosa-1(22),2,4,6,18,20-hexaene-15-carboxamide] | > 60 | 71 | 80 | > 4 | 69 | > 60 | 100 | > 4 |

Results, then the compound that gave them:

| half-life at 10 μM [1] [min] | Metabolic Stability 60 min hum [% remain.] [1] [% remain.] | Plasma Stability 240 min mouse/(rat) [% remain.] [2] [% remain.] | half-life at 10 μM [2] [h] | Metabolic Stability 60 min mouse/(rat) [% remain.] [3] [% remain.] | half-life at 10 μM [3] [min] | Plasma Stability 240 min hum [% remain.] [4] [% remain.] | half-life at 10 μM [4] [h] | SMILES |
| --- | --- | --- | --- | --- | --- | --- | --- | --- |
| > 60 | 100 | 61 | > 4 | 77 | > 60 | 99 | > 4 | CNC(=O)[C@@H]1CCC(=O)N[C@@H](C)COc2cccc(c2)-c2cccc(c2)C(=O)N1C [Ex. 70, (9S,14S)-N,9,15-trimethyl-11,16-dioxo-7-oxa-10,15-diazatricyclo[15.3.1.1^2,6]docosa-1(21),2(22),3,5,17,19-hexaene-14-carboxamide] |
| 19 | 6 | 84 | > 4 | 19 | 24 | 90 | > 4 | CC(C)CNC(=O)[C@@H]1CCC(=O)N[C@@H](C)COc2cccc(c2)-c2cccc(c2)C(=O)N1C [Ex. 80, (9S,14S)-N-isobutyl-9,15-dimethyl-11,16-dioxo-7-oxa-10,15-diazatricyclo [15.3.1.1^2,6]docosa-1(21),2(22),3,5,17,19-hexaene-14-carboxamide] |
| > 60 | 99 | 86 | > 4 | 92 | > 60 | 100 | > 4 | C[C@H]1COc2cccc(c2)-c2cccc(c2)C(=O)N(C)[C@H](C(=O)NCC(F)(F)F)CCC(=O)N1 [Ex. 78, (9S,14S)-9,15-dimethyl-11,16-dioxo-N-(2,2,2-trifluoroethyl)-7-oxa-10,15-diazatricyclo[15.3.1.1^2,6]docosa-1(21),2(22),3,5,17,19-hexaene-14-carboxamide] |
| 7 | 1 | 67 | > 4 | 0 | 3 | 100 | > 4 | C[C@H]1COc2cccc(c2)-c2cccc(c2)C(=O)N(C)[C@H](C(=O)NCc2cccc3ccccc23)CCC(=O)N1 [Ex. 74, (9S,14S)-9,15-dimethyl-N-(1-naphthylmethyl)-11,16-dioxo-7-oxa-10,15-diazatricyclo[15.3.1.1^2,6]docosa-1(21),2(22),3,5,17,19-hexaene-14-carboxamide] |
| > 60 | 100 | 45 | 3.33 | 100 | > 60 | 91 | > 4 | C[C@H]1COc2cccc(c2)-c2cccc(c2)C(=O)N(C)[C@H](C(=O)O)CCC(=O)N1 [Ex. 69, (9S,14S)-9,15-dimethyl-11,16-dioxo-7-oxa-10,15-diazatricyclo[15.3.1.1^2,6]docosa-1(21),2(22),3,5,17,19-hexaene-14-carboxylic acid] |
| > 60 | 100 | 92 | > 4 | 89 | > 60 | 100 | > 4 | C[C@H]1COc2cccc(c2)-c2cccc(c2)C(=O)N(C)[C@H](C(N)=O)CCC(=O)N1 [Ex. 71, (9S,14S)-9,15-dimethyl-11,16-dioxo-7-oxa-10,15-diazatricyclo[15.3.1.1^2,6]docosa-1(21),2(22),3,5,17,19-hexaene-14-carboxamide] |
